Consider 54 compounds from ChEMBL document CHEMBL1153993, “Exploring a pocket for polycycloaliphatic groups in the CXCR3 receptor with the aid of a modular synthetic strategy” (Bioorg Med Chem Lett, 2009).

For experiment [1], the target named is T1, C-X-C chemokine receptor type 3 (Homo sapiens, UniProt P49682).
T1 sequence (P49682 whole entry): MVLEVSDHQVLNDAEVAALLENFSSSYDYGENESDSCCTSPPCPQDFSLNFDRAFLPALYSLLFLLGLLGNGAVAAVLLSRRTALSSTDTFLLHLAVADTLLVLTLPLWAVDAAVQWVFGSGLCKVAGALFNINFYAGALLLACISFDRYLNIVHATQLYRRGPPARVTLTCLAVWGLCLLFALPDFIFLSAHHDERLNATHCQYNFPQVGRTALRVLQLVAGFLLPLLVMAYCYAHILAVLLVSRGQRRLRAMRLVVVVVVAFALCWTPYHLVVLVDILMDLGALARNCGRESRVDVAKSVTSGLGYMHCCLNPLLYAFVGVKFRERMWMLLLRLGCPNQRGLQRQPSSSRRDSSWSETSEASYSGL
The experiment is described as follows: Displacement of [125I]CXCL10 from human CXCR3 expressed in HEK293T cells. Format: cell-based, HEK-293T. On the technique in general: Loss of bound radioactivity is the signal in a displacement assay; it reports binding, not function.

Experiment [2] addresses T2, C-X-C chemokine receptor type 3 (Homo sapiens) (UniProt P49682).
T2 sequence (whole entry): T1 sequence (P49682 whole entry)
Description: Antagonist activity at human CXCR3 expressed in HEK293T cells coexpressing Galphaqi5 assessed as inhibition of CXCL10-induced [3H]inositol phosphate levels by liquid scintillation counting. Format: functional, cell-based. The settings on record: HEK-293T.

As for `Fc1cc(Cl)ccc1CN1CCC(N2CCCC2)CC1`, the Ki (usually a dissociation constant, usually derived from enzyme kinetics or from competition with a known ligand) in experiment [1] is greater than 10 µM.
On to `O=C(Nc1ccc(Cl)cc1F)N1CCC(NC2C3CC4CC(C3)CC2C4)CC1` (stereo unspecified), for which the Ki in experiment [1] is greater than 10 µM.
Take `Fc1cc(Cl)ccc1CN1CCC(NC2CCCCC2)CC1`: in experiment [1], the Ki is 5.01 µM.
On the same count and under the same terms, the figure for `Fc1cc(Cl)ccc1CN1CCC(NCC2CCCCC2)CC1` is 3.98 µM.
With `Fc1cc(Cl)ccc1CN1CCC(NC2C3CC4CC(C3)CC2C4)CC1` (stereo unspecified), the pKb (commonly −log10 of the Kb, conventionally taken in molar units) in experiment [2] is 6.1. This compound showed a Ki in experiment [1] of 0.158 µM.
Compound `CC(c1ccc(Cl)cc1F)N1CCC(NC2C3CC4CC(C3)CC2C4)CC1` (stereo unspecified) gave an inhibition constant (Ki) in experiment [1] of 5.01 µM.
For the compound `CCOC(=O)C1=C(NC2C3CC4CC(C3)CC2C4)CCN(Cc2ccc(Cl)cc2F)C1` (stereo unspecified), in experiment [1], the Ki is 5.01 µM.
Still for that read-out and setting: the figure for `Fc1cc(Cl)ccc1CNC1CCN(C2C3CC4CC(C3)CC2C4)CC1` (stereo unspecified) is 3.98 µM.
Same read-out and setting: next, `CN(CC1C2CC3CC(C2)CC1C3)C1CCN(Cc2ccc(Cl)cc2F)CC1` (stereo unspecified): 2.51 µM; `CC12CC3CC(C)(CC(C1)C3NC1CCN(Cc3ccc(Cl)cc3F)CC1)C2` (stereo unspecified): 0.501 µM; `Clc1ccc(CN2CCC(NC3C4CC5CC(C4)CC3C5)CC2)cc1` (stereo unspecified): 0.398 µM.
`Clc1ccc(CN2CCC(NC34CC5CC(CC(C5)C3)C4)CC2)cc1`: the Ki in experiment [1] is 1 µM.
For `Fc1cc(Cl)ccc1CN1CCC(NCC2C3CC4CC(C3)CC2C4)CC1` (stereo unspecified), the Ki in experiment [1] was 1 µM.
On the same count and under the same terms, the figure for `CCNC(=O)c1cnc(N2CCN(C3CCN(Cc4ccc(Cl)cc4)CC3)[C@@H](CC)C2)c(Cl)c1` is 0.00316 µM.
In turn, `Fc1cc(Cl)ccc1CN1CCCN(C2C3CC4CC(C3)CC2C4)CC1` (stereo unspecified) had a Ki in experiment [1] of 1.58 µM.
In experiment [1], `Fc1cc(Cl)ccc1CN1CCC(NCCC(c2ccccc2)c2ccccc2)CC1` had a Ki greater than 100 µM.
In experiment [1], `Fc1cc(Cl)ccc1CN1CCC(N2CCc3ccccc3C2)CC1` showed a Ki of 5.01 µM.
With `COc1ccc(CN2CCC(N[C@@H]3C[C@H]4CC[C@]3(C)C4(C)C)CC2)c(F)c1`, the Ki in experiment [1] is 1.58 µM.
For `CC1(C)C2CC=C(CNC3CCN(Cc4ccc(Cl)cc4F)CC3)C1C2` (stereo unspecified), in experiment [1], the Ki was 3.98 µM.
On the same count and under the same terms, the figure for `COC(=O)c1ccc(CN2CCC(N[C@@H]3C[C@H]4CC[C@]3(C)C4(C)C)CC2)cc1` is 3.16 µM; for `c1ccc(CN2CCC(NC3C4CC5CC(C4)CC3C5)CC2)cc1` (stereo unspecified) it is 3.98 µM.
For the compound `Fc1cc(Cl)ccc1CN1CCCC(NC2C3CC4CC(C3)CC2C4)C1` (stereo unspecified), the affinity in experiment [1] corresponds to a Ki of 2 µM.
On the same count and under the same terms, next, `Fc1cc(Cl)ccc1CN1CCC(NC/C2=C/CCCCCC2)CC1`: 2.51 µM.
In experiment [1], `CN(C1CCN(Cc2ccc(Cl)cc2F)CC1)C1C2CC3CC(C2)CC1C3` (stereo unspecified) had a Ki of 1.26 µM.
Turning to `Fc1cc(Cl)ccc1CN1CCC(NCC23CC4CC(CC(C4)C2)C3)CC1`, in experiment [1], the Ki is 0.501 µM.
In experiment [1], `Fc1cc(Cl)ccc1CN1CCC(NC2C3CC4CC2CN(C4)C3)CC1` (stereo unspecified) gave a Ki of 7.94 µM.
On to `Fc1cc(Cl)ccc1CN1CCC(CNC2C3CC4CC(C3)CC2C4)CC1` (stereo unspecified), for which the inhibition constant (Ki) in experiment [1] is 3.98 µM.
Regarding `CN1C2CCC1CC(NC1CCN(Cc3ccc(Cl)cc3F)CC1)C2` (mixture of isomers), the Ki in experiment [1] was greater than 10 µM.
Regarding `CC1(C)C2CC[C@@]1(C)C(CNC1CCN(Cc3ccc(Cl)cc3F)CC1)C2` (mixture of isomers), in experiment [1], the Ki is 2 µM.
`CC1(C)[C@@H]2CC[C@@]1(C)[C@H](NC1CCN(Cc3ccc(Cl)cc3F)CC1)C2` (relative stereo): the pKb in experiment [2] was 5.7. In experiment [1], this compound had a Ki of 0.398 µM.
`CC1(C)[C@@H]2CC[C@@]1(C)[C@H](NC1CCN(Cc3ccccc3)CC1)C2` (relative stereo): in experiment [1], the affinity, expressed as Ki, was 2.51 µM.
As for `CC1(C)[C@@H]2CC[C@@]1(C)[C@H](NC1CCN(Cc3ccc(N=[N+]=[N-])cc3)CC1)C2` (relative stereo), in experiment [1], the Ki is 0.794 µM.
For the compound `CC1(C)[C@@H]2CC[C@@]1(C)[C@H](NC1CCN(Cc3ccc(N)cc3)CC1)C2` (relative stereo), the Ki in experiment [1] was 6.31 µM.
`CN(C)c1ccc(CN2CCC(N[C@@H]3C[C@H]4CC[C@]3(C)C4(C)C)CC2)cc1` (relative stereo) had an inhibition constant Ki in experiment [1] of 3.98 µM.
`CC1(C)[C@@H]2CC[C@@]1(C)[C@H](NC1CCN(Cc3ccc(Cl)cc3)CC1)C2` (relative stereo) had an inhibition constant (Ki) in experiment [1] of 0.501 µM.
The compound `CC1(C)[C@@H]2CC[C@@]1(C)[C@H](NC1CCN(Cc3ccccc3F)CC1)C2` (relative stereo) gave a Ki in experiment [1] of 6.31 µM.
On the same count and under the same terms, the figure for `CN(C1CCN(Cc2ccc(Cl)cc2F)CC1)[C@@H]1C[C@H]2CC[C@]1(C)C2(C)C` (relative stereo) is 1.58 µM.
`CN(C1CCN(Cc2ccc(Cl)cc2F)CC1)[C@H]1C[C@H]2CC[C@]1(C)C2(C)C` (relative stereo) showed a Ki in experiment [1] of 1.26 µM.
In experiment [1], `COc1ccc(CN2CCC(N[C@@H]3C[C@H]4CC[C@]3(C)C4(C)C)CC2)cc1` (relative stereo) gave a Ki of 2 µM.
On the same count and under the same terms, the figure for `CC1(C)[C@@H]2CC[C@@]1(C)[C@H](NC1CCN(Cc3ccc(OC(F)(F)F)cc3)CC1)C2` (relative stereo) is 0.794 µM; for `COc1ccccc1CN1CCC(N[C@@H]2C[C@H]3CC[C@]2(C)C3(C)C)CC1` (relative stereo) it is 10 µM; for `CC(=O)Nc1ccc(CN2CCC(N[C@@H]3C[C@H]4CC[C@]3(C)C4(C)C)CC2)cc1` (relative stereo) it is greater than 10 µM.
For the compound `COc1cccc(CN2CCC(N[C@@H]3C[C@H]4CC[C@]3(C)C4(C)C)CC2)c1` (relative stereo), affinity in experiment [1] was put at a Ki of 7.94 µM.
Still for that read-out and setting: next, `CC1(C)[C@@H]2CC[C@@]1(C)[C@H](NC1CCN(Cc3ccccn3)CC1)C2` (relative stereo): 7.94 µM.
On the same count and under the same terms, the figure for `CC1(C)[C@@H]2CC[C@@]1(C)[C@H](NC1CCN(Cc3cccnc3)CC1)C2` (relative stereo) is greater than 10 µM.
In experiment [1], `CC1(C)[C@@H]2CC[C@@]1(C)[C@H](NC1CCN(Cc3ccc(F)c(C(F)(F)F)c3)CC1)C2` (relative stereo) had a Ki of 2.51 µM.
Same read-out and setting: the figure for `CC1(C)[C@@H]2CC[C@@]1(C)[C@H](NC1CCN(Cc3cc(F)cc(C(F)(F)F)c3)CC1)C2` (relative stereo) is 3.98 µM; for `CC1(C)[C@@H]2CC[C@@]1(C)[C@H](NC1CCN(Cc3c(F)c(F)c(F)c(F)c3F)CC1)C2` (relative stereo) it is 0.501 µM; for `CC1(C)[C@@H]2CC[C@@]1(C)[C@H](NC1CCN(Cc3ccco3)CC1)C2` (relative stereo) it is 6.31 µM.
Same read-out and setting: the figure for `CC1(C)[C@@H]2CC[C@@]1(C)[C@H](NC1CCN(Cc3ccc(F)cc3F)CC1)C2` (relative stereo) is 2 µM.
`CC1(C)[C@@H]2CC[C@@]1(C)[C@@H](NC1CCN(Cc3ccc(Cl)cc3F)CC1)C2` (relative stereo; 60): affinity in experiment [1] was put at a Ki of 0.398 µM.
The compound `CC1(C)[C@@H]2CC[C@@]1(C)[C@@H](NC1CCN(Cc3ccc(Cl)cc3F)CC1)C2` (relative stereo; 62) had a Ki in experiment [1] of 0.631 µM.
On to `CCOC(=O)C1CN(Cc2ccc(Cl)cc2F)CCC1NC1C2CC3CC(C2)CC1C3` (single isomer, unassigned), for which the affinity in experiment [1], expressed as Ki, was 3.98 µM.
In experiment [1], `CCOC(=O)C1CN(Cc2ccc(Cl)cc2F)CCC1NC1C2CC3CC(C2)CC1C3` (stereo in doubt; 32) showed an inhibitory constant (Ki) of 5.01 µM.
